In PubChem BioAssay (NCI):
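Method: 48-hour compound exposure of cells in 96-well plates, five concentrations, linear interpolation of endpoints. GI50 = concentration required for 50% inhibition of growth. TGI denotes the concentration required for complete inhibition of growth.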

Legend:
Experiment in all cases: NCI tumour cell line growth inhibition, 48 h
[1] = test system: BT-549 breast
[2] = test system: HCT-15 colon
[3] = test system: HT29 colon
[4] = test system: LOX IMVI melanoma
[5] = test system: MDA-MB-435
[6] = test system: MOLT-4 leukemia
[7] = test system: NCI/ADR-RES ovarian
[8] = test system: OVCAR-3 ovarian
[9] = test system: OVCAR-4 ovarian
[10] = test system: RXF 393 renal

| SMILES | GI50 [1] [µM] | TGI [1] [µM] | GI50 [2] [µM] | TGI [2] [µM] | GI50 [3] [µM] | TGI [3] [µM] | GI50 [4] [µM] | TGI [4] [µM] | GI50 [5] [µM] | TGI [5] [µM] | GI50 [6] [µM] | TGI [6] [µM] | GI50 [7] [µM] | TGI [7] [µM] | GI50 [8] [µM] | TGI [8] [µM] | GI50 [9] [µM] | TGI [9] [µM] | TGI [10] [µM] | GI50 [10] [µM] |
| --- | --- | --- | --- | --- | --- | --- | --- | --- | --- | --- | --- | --- | --- | --- | --- | --- | --- | --- | --- | --- |
| COc1ccc2[nH]c3c4[nH]c5ccc(OC)cc5c4c4c(c3c2c1)C(=O)NC4=O | > 9.4 | > 25 | > 14.3 | > 25 | > 25 | > 25 | > 13.1 | > 25 | > 12.6 | > 25 | > 10.3 | > 25 | > 25 | > 25 | > 11.2 | > 25 | > 25 | > 25 | > 15.4 | – |
| COc1cc(OC)c(C(=O)/C=C/c2cccc(C(F)(F)F)c2)c(OC)c1 | 1.08 | 2.84 | 0.942 | 2.68 | 1.69 | 4.75 | 1.04 | 2.42 | 1.61 | 6.57 | 0.873 | 3.75 | 1.4 | 5.95 | 2.03 | 6.89 | 2.24 | 8.57 | 2.24 | 1.03 |
| Nc1ccccc1C#C/C=C\C#Cc1ccccc1N | 11.5 | 41.2 | 14.1 | 33.3 | 32 | > 100 | 17.9 | 33.7 | 1.43 | 4.58 | 1.04 | 17.3 | 2.26 | 7.95 | 1.72 | 9.1 | 34.2 | > 100 | 47.6 | 16.8 |
| COCC[C@H]1CCC/C=C/[C@@H]2C[C@H](O)C[C@H]2[C@H](O)/C=C/C(=O)O1 | 0.132 | > 90.9 | 0.314 | > 100 | 0.0351 | 0.227 | 0.0434 | 0.179 | 0.0595 | > 100 | 0.353 | > 100 | 0.0472 | – | 0.0505 | 0.273 | 0.0528 | – | 0.0539 | 0.0219 |
| CC1(C)C(=O)/C(=C\c2cccnc2)C[C@]2(C)[C@H]3CC[C@@H]4[C@H]5[C@H](C(=O)/C=C/c6cccnc6)CC[C@]5(C(=O)O)CC[C@@]4(C)[C@]3(C)CC[C@@H]12 | 1.95 | 4.41 | 1.76 | 4.54 | 3.09 | 10.8 | 1.74 | 3.6 | 3.2 | 12.9 | 2.22 | 11.5 | 3.08 | > 100 | 1.76 | 3.42 | 4.37 | > 100 | 3.1 | 1.67 |
